Data: patent US20080216197A1, “Polypeptide Having Function Related to Pyridoxine Biosynthesis, Polynucleotide Coding the Polypeptide, and Those Use” (Genomine, Inc., priority 2005, published 2008)
Structures can show the parent of a compound that is named as a salt.

Experiments:
Arabidopsis thaliana = assay: PPT treatment of T2 plants grown in Petri dishes (segregation check); format: in vivo; conditions: 12.5 mg/L PPT
[1] = test system: mutant Arabidopsis thaliana; assay: Phenotype recovery of mutant T2 plants on pyridoxine-supplemented MS medium; format: in vivo; conditions: 2.5 mg/L pyridoxine-HCl in MS medium, 30 seeds/Petri dish, slight etiolation observed, FIG. 7
Procedure: The analysis of the AtPDX5 domain led to the inference that the AtPDX5 gene might have an enzymatic function involved in the pyridoxine biosynthesis pathway. To examine this, T2 plants of the mutant Arabidopsis thaliana were cultured in Petri dishes containing a 2.5 mg/L pyridoxine-HCl (Sigma, USA)-supplemented MS medium (30 seeds/Petri dish). […] In addition, the etiolation of the mutant plants was believed to be attributed to a low content of pyridoxine in the medium. Based on the fact that the phenotype recovery was induced by the addition of pyridoxine, the AtPDX5 gene is concluded to be directly responsible for pyridoxine biosynthesis. As described hereinbefore, T2 plants of the mutant Arabidopsis thaliana have the phenotype properties of significant growth delay, etiolation throughout leaves, and death in an early stage, and the mutant Arabidopsis thaliana can have the same phenotype as that of the wild-type in the presence of pyridoxine.

CP(=O)(O)CC[C@H](N)C(=O)O [PPT, phosphinothricin]
effect on the five plants having a wild-type phenotype (Arabidopsis thaliana): converted to a fatal phenotype
effect on the other 25 plants (etiolation and retarded growth phenotype) (Arabidopsis thaliana): remained unchanged

Cc1ncc(CO)c(CO)c1O [pyridoxine-HCl, 2-methyl-3-hydroxy-4,5-di(hydroxymethyl)pyridine]
phenotype (growth delay) of the mutant versus the wild-type [1]: no significant difference in phenotype
